Reference: patent US6436973B1, “LTA4 hydrolase inhibitors” (Bioprojet, priority 1998, dated 2002)
Counter-ions that a name gives are not always drawn.

How the values were obtained:
[1] = test system: oedema of the leg induced by Zymosan; experiment: Oedema of the leg induced by Zymosan in mice; assay type: in vivo; conditions: oral route, 30 mg/kg, one hour before zymosan, sacrificed after 4 hours
Experimental: a) Oedema of the leg induced by Zymosan in mice Zymosan is a polysaccharide of the yeast cell membrane. Injected into the leg of animals, it causes a local inflammatory reaction in the form of an oedema. One hour after administration of the inhibitor tested by the oral route to mice, at the dose of 30 mg/kg, 25 μl of zymosan (0.05% in 0.15 M NaCl) are injected into the left hind leg and 25 μl of physiological saline into the right leg as control. The animal is sacrificed after 4 hours, the legs cut at the ankle and weighed in order to evaluate the oedema developed.

[2] = test system: biosynthesis of LTB4 in the air pouch; experiment: Inflammation induced by carrageenan in the air pouch model in mice (LTB4 in exudate); assay type: in vivo
Experimental: b) Inflammation induced by carrageenan in the air pouch model in mice
The air pouches are formed in mice according to Dawson et al. (Int. J. Tiss. React., 1991, XIII: 171). On day D, 5 ml of air are injected by the subcutaneous route into the back of the mice. On D+3, the pouch is maintained by reinjecting 3 ml of air. On D+6, either a cyclooxygenase inhibitor (indomethacin 5 mg/kg), or an LTA4 hydrolase inhibitor according to the invention (25 mg/kg), or the two in combination are administered by the oral route. After 1 h, 1 ml of 1% carrageenan is injected into the air pouch. The animals are sacrificed 4 h after the injection of carrageenan. The air pouche is washed with 1 ml of 50 mM potassium phosphate buffer containing 0.15 M NaCl, pH 7.4. The exudate is recovered and centrifuged at 10,000 g for 5 minutes. LTB4 is assayed in the supernatant by enzyme-linked immunoassay.

[3] = target: T1, human recombinant LTA4 hydrolase (Homo sapiens, UniProt P09960); experiment: Inhibition of the aminopeptidase activity of recombinant LTA4 hydrolase (fluorimetric, Ala-AMC); assay type: biochemical; conditions: human recombinant enzyme, Ala-AMC 25 μM, DTT 10^−5 M, pH 7.4, 37° C.
T1 construct: made in house; host or cells: E. coli JM109
T1 sequence (P09960 1-611): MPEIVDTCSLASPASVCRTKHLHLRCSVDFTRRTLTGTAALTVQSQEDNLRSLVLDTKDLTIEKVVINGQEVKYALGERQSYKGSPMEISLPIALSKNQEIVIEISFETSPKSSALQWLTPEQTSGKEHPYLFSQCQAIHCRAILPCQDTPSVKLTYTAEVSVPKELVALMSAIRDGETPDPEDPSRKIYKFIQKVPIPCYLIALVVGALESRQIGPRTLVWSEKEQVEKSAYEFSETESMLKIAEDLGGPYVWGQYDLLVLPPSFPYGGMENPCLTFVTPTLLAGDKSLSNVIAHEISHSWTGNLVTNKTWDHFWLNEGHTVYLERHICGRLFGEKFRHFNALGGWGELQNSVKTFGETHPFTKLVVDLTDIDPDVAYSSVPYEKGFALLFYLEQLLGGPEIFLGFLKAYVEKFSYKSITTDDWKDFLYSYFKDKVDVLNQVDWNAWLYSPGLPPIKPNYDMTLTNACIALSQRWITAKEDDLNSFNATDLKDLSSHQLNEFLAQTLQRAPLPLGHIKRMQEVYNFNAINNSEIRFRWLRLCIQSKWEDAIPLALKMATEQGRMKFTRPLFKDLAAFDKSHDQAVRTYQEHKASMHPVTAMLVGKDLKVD
Experimental: 1) Inhibition of the aminopeptidase activity of recombinant LTA4 hydrolase
The compounds were tested using human recombinant LTA4 hydrolase (Minami et al., FEBS Letters, 1988, 229: 279). The LTA4 hydrolase expressed by E. coli JM109 is purified mainly according to Minami et al., (J. Biol. Chem., 1987, 262: 13873).
(§1) The inhibition of the aminopeptidase activity of the enzyme is measured by means of a fluorimetric method in 96-well microplates. The recombinant enzyme (0.5 μg in 50 μl of 50 mM Tris-HCl pH 7.4) is preincubated for 10 minutes at 37° C. in the presence of inhibitor and of dithiothreitol (DTT, 10^−5 M). The substrate alanyl-amido-methylcoumarin (Ala-AMC, 25 μM−Tris HCl 50 mM, pH 7.4) is added and the incubation is continued for 15 minutes at 37° C. The release of AMC is measured by fluorimetry.

[4] = target: T2, LTA4 hydrolase activity in human whole blood (Homo sapiens, UniProt P09960); experiment: Inhibition of the biosynthesis of LTB4 in vitro in human whole blood; assay type: cell-based; conditions: LTA4 substrate, LTB4 by enzyme-linked immunoassay
T2 construct: from tissue; host or cells: human whole blood collected over sodium heparinate
T2 sequence (P09960 1-611): T1 sequence (P09960 1-611)
Experimental: 2) Inhibition of the biosynthesis of LTB4 in vitro
The biosynthesis of LTB4 is measured in human whole blood in the presence of inhibitors of LTA4 hydrolase according to the invention. A 50 μl blood sample collected over sodium heparinate is preincubated for 10 minutes at 37° C. in the presence of inhibitor (50 mM Tris-HCl, 0.15 M NaCl, 10^−5 M DTT, pH 7.4).
The LTA4 substrate was freshly prepared by alkaline hydrolysis of LTA4 methyl ester (Cayman Chemical Co., USA). After incubating for 10 minutes in the presence of LTA4 (1 μm in 50 mM Tris-HCl, 0.15 M NaCl, 0.5% BSA, pH 7.4), the reaction is stopped by diluting 1/20 in 0.1 M potassium phosphate buffer containing 1.5 mM […], 0.4 M NaCl, 1 mM EDTA, 0.1% BSA, pH 7.4−4° C.
The LTB4 is assayed by enzyme-linked immunoassay (Cayman Chemical Co, USA).

[5] = target: T3, aminopeptidase M (EC 3.4.11.2) (Sus scrofa, UniProt P15145); experiment: Inhibition of membrane aminopeptidase M (same fluorimetric test); assay type: biochemical; conditions: 0.1 μg aminopeptidase M (Pierce)
T3 construct: purchased Pierce, USA
T3 sequence (P15145 1-963): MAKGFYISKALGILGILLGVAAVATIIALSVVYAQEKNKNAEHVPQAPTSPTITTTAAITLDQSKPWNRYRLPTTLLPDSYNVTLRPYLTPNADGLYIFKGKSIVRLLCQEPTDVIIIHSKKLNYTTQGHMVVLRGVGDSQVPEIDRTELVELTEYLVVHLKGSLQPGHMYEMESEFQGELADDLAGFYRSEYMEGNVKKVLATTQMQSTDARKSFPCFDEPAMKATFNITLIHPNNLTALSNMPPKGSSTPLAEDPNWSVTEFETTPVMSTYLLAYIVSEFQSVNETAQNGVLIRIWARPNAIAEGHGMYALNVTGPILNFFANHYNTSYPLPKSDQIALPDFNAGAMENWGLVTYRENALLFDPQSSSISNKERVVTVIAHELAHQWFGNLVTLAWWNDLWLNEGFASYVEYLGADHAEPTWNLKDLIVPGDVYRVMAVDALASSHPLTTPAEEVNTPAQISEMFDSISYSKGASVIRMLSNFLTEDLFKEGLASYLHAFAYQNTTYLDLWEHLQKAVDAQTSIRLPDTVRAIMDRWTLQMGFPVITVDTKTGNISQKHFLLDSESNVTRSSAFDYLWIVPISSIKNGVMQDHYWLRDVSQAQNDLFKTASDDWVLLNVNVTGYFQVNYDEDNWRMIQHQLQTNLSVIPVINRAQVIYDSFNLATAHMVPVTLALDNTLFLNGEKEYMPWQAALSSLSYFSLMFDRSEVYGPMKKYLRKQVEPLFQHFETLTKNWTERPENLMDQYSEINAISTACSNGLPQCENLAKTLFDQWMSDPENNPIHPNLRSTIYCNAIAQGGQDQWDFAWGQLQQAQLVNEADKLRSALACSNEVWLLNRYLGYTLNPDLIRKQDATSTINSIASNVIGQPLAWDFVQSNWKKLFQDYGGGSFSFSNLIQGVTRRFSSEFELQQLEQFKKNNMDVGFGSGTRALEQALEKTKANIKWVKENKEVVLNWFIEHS
Experimental: as §1
To evaluate the specificity of the compounds according to the invention, some of them were also tested for their capacity to inhibit the activity of membrane aminopeptidase M (EC 3.4.11.2). The same test is carried out with 0.1 μg of aminopeptidase M (Pierce, USA).

biosynthesis of LTB4 = experiment: Inhibition of the biosynthesis of LTB4 ex vivo (mouse blood after oral dosing); assay type: in vivo; conditions: mice, blood collected thirty minutes later
Experimental: 3) Inhibition of the biosynthesis of LTB4 ex vivo
The compounds inhibiting LTA4 hydrolase according to the invention are suspended in 1.25% methyl cellulose and administered to mice by the oral route at the dose of 10 mg/kg. Thirty minutes later, the mice are sacrificed and the blood collected over lithium heparinate. The blood is then, as above, incubated for 10 minutes at 37° C. in the presence of LTA4 and then the LTB4 formed is assayed by enzyme-linked immunoassay.

[6] = test system: collagen-induced arthritis; experiment: Collagen-induced arthritis in the rat (arthritis score); assay type: in vivo, rat "Dark Aganti"; conditions: score at 23rd day
Experimental: c) Antiarthritic effect Collagen-induced arthritis was induced in the rat “Dark […]” according to the protocol by Kamada et al. (Jpn J. Pharmacol., 1997, 74: 313). The LTA4 hydrolase inhibitors are administered either “preventively” (starting from one day after the collagen), or curatively (during the first pathological manifestations, that is starting from 15 days after the collagen). […] The effect is-compared with that of indomethacin (1.5 mg/kg, p.o.).

Cl.N[C@@H](CS)CCCCOc1ccccc1 (racemic) [Example 156, (R,S) -2-amino-6-phenoxy-1-hexanethiol hydrochloride]
Inhibition (%) of oedema of the leg induced by Zymosan [1]: 35% | % LTB4 relative to the noninflamed control ([2]; carrageenan + LTA4 hydrolase inhibitor 25 mg/kg oral, 4 h after carrageenan): −24% | % LTB4 relative to the noninflamed control ([2]; carrageenan + indomethacin 5 mg/kg + inhibitor 25 mg/kg in combination, oral): −28%

NC(CS)CCOc1ccccc1 (racemic) [Example 172, (R,S)-2-amino-4-phenoxy-1-butanethiol hydrochloride]
Ki [3]: 0.015 µM | Ki [4]: 0.19 µM

NC(CS)CCCCc1ccccc1 (racemic) [Example 173, (R,S)-2-amino-6-phenyl-1-hexanethiol hydrochloride]
Ki [5]: 0.2 µM | Ki [3]: 0.033 µM | Ki [4]: 0.2 µM

Cl.N[C@@H](CS)CCCOc1ccccc1 (racemic) [Example 177, (R,S)-2-amino-5-phenoxy-1-pentanethiol hydrochloride]
Inhibition (%) of the biosynthesis of LTB4 ex vivo (biosynthesis of LTB4; 10 mg/kg): 68%

N[C@@H](CS)CSCc1ccccc1 [Example 23, (S)-2-amino-3-benzylthio-1-propanethiol hydrochloride]
Ki [3]: 0.062 µM

N[C@H](CS)COCc1ccccc1 [Example 24, (S)-2-amino-3-benzyloxy-1-propanethiol hydrochloride]
inhibition at 10 mg/kg (biosynthesis of LTB4; Mus musculus): 28%

Cl.Cl.NC(CCCCOc1ccccc1)CSSCC(N)CCCCOc1ccccc1 [Example 229, 1,1-dithiobis(2-(R,S)-amino-6-phenoxyhexane) dihydrochloride]
Arthritis score ([6]; curative (starting 15 days after collagen), 10 mg/kg i.p. twice/day): 0.38 ± 0.19 | Arthritis score ([6]; preventive (starting one day after collagen), 10 mg/kg i.p. twice/day): 0

COc1ccc2c(c1)c(CC(=O)O)c(C)n2C(=O)c1ccc(Cl)cc1 [indomethacin, reference compound]
Arthritis score ([6]; curative, 1.5 mg/kg p.o.): 1.35 ± 0.61 | % LTB4 relative to the noninflamed control ([2]; carrageenan + indomethacin 5 mg/kg oral, 4 h after carrageenan): +516%
